We go through 3 compounds from patent US20120328696A1, “ANTI-PARKINSONIAN COMPOUND ACETYLSALICYLIC ACID MALTOL ESTER” (Hutecs Korea Pharmaceutical Co., Ltd., priority 2008, published 2012).

Type in all cases: in vivo
For assay [1], the system named is dopamine (DA), DOPAC, HVA. Put plainly: Striatal DA, DOPAC and HVA after MA (HPLC). The settings on record: p.o.; AME 50, EBS 20, rottlerin 20 mg/kg; MA 8 mg/kg i.p. x4; GPx-1 (+/+) and (−/−) mice. As for the experimental part:
(§1) The mice received four times of MA (8 mg/kg, ip) or saline as a 2 hr-time interval. Chemicals (AME, EBS, and PKC inhibitors) were administrated for 5 consecutive days (twice daily), and were given 2 times at 4 hr and 30 min before the first MA injection as shown in the experimental schedule. Animals were sacrificed at 4 hrs and 3 days after the final MA administration.
At 3 day after last MA injection, mice were killed by cervical dislocation and the brains were removed. Striatum was dissected and immediately frozen on dry ice, and stored at −70° C. until extraction. Striatum obtained from each animal was weighed, ultrasonicated in 10% perchloric acid containing 10 ng/mg of the internal standard dihydroxybenzylamine, and centrifuged at 20,000×g for 10 min. The levels of DA and its metabolites 3,4-dihydroxyphenylacetic acid (DOPAC) and homovanillic acid (HVA) in brain tissue extracts were determined by HPLC coupled with electrochemical detection as described (Kim et al., 1999). The 20 μl aliquot of the supernatant was injected into the HPLC equipped with a 3 μm C18 column. The mobile phase was comprised of 26 ml of acetonitrile, 21 ml of tetrahydrofuran and 960 ml of 0.15M monochloroacetic acid (pH 3.0) containing 50 mg/l of EDTA and 200 mg/l of sodium octyl sulfate. The amount of DA, DOPAC and HVA were determined by comparison of peak area of tissue sample with standard, and were expressed in nanograms per gram of wet tissue.

In a further assay the test system is interferon (IFN)-γ. Put plainly: IFN-γ expression after MA (western blot). The settings on record: p.o.; AME 50, EBS 20, rottlerin 20 mg/kg; MA 8 mg/kg i.p. x4; GPx-1 (+/+) and (−/−) mice. As for the experimental part:
as §1
(§2) The western blot assays was performed as described previously (Kim et al., 2003). Tissues were homogenized in lysis buffer, containing 200 mM Tris HCl (pH 6.8), 1% SDS, 5 mM EGTA (ethylene glycol tetraacetic acid), 5 mM EDTA (ethylenediaminetetraacetic acid), 10% glycerol, 1× phosphatase inhibitor cocktail I, 1× protease inhibitor cocktail. Lysate was centrifuged at 12,000×g for 30 min and supernatant fraction was used for Western blot analysis. Proteins (20-50 ug/lane) were separated by 6%, 8%, 10% or 15% sodium dodecyl sulfate-polyacrylamide gel electrophoresis and transferred onto the PVDF membranes. Following transfer, the membranes were preincubated with 5% non-fat milk and incubated overnight at 4° C. with primary antibody against β-actin (1:50000, Sigma, St. Louis, Mo., USA), TH (1:5000, Chemicon), TH phosphor-Ser 19 (1:1000, Chemicon,), TH phosphor-Ser 31 (1:500, Chemicon), TH phosphor-Ser 40 (1:500, Chemicon), F4/80 (1:500, Serotec), GPx1 (1:2500, AbFrontier), PKC (1:5000, Santa Cruz biotechnology, Santa Cruz, Calif., USA), p53 (1:5000, Cell signaling, Beverly, Mass., USA), MDM2 (1:1000, BD Pharmingen, San Jose, Calif., USA), MDM2 phospho-Ser 166 (1:1000, cell signaling), BDNF (1:500, Chemicon), GDNF (1:250, Santa Cruz), COX-2 (1:2000, Cayman, Ann Arbor, MC, USA), IL-6 (1:2000, Abcam, Cambridge, Mass., USA), TNF-a (1:1000, R&D Systems, Mckinley place NE, NM, USA), IFN-γ (1:500, Chemicon) or Iba-1 (1:500, Wako, Osaka, Japan). And then, membranes were incubated with HRP-conjugated secondary anti-rabbit IgG (1:1000, GE healthcare, Piscataway, N.J., USA), anti-mouse IgG (1:1000, Sigma) or anti-goat IgG (1:1000, Sigma) for 2 h. […]

Assay [2] has as its system glutathione peroxidase (GPx)-1. Put plainly: Striatal GPx-1-like immunoreactivity after MA. The conditions noted are these: p.o.; AME 50, EBS 20, rottlerin 20 mg/kg; MA 8 mg/kg i.p. x4; GPx-1 (+/+) mice. As for the experimental part:
as §1
Animals were sacrificed at 4 hours and 3 days after the last MA injection. They were anesthetized with 60% urethane and perfused transcardially with 50 ml of 50 mM phosphate buffered saline (PBS), followed by 50 ml of a mixture of 4% paraformaldehyde in PBS. The rate of perfusion was 50 ml/min. The brains were removed, post-fixed at 4° C. for 24 h in the same fixative and then cryoprotected in 30% sucrose in PBS. The brains were cut on a horizontal sliding microstome into 40 μm transverse free-floading sections (Kim et al., 1999).
The immunocytochemistry was performed as described previously (Kim et al., 2000a, b). Briefly, prior to incubation with the primary antibodies, sections were preincubated with 0.3% hydrogen peroxide in PBS for 30 min (to block endogenous peroxidase activity), then in PBS containing 0.4% Triton X-100 for 20 min and 1% normal serum for 20 min. The sections were then incubated for 48 h at 4° C. in primary antibody against tyrosine hydroxylase (1:500, Chemicon, Termecula, Calif., USA), GPx1 (1:500, AbFrontier, Seoul, Korea), PKC (1:200, Santa Cruz biotechnology INC, CA, USA) or F4/80 (1:50, Serotec, Raleigh, N.C., USA). The sections were further incubated with secondary biotinylated antisera (1:1000 dilution; Vector, Brulingame, Calif.) for 1 hr, and immersed in avidin-biotin-peroxidase complex (ABC Elite kit, Vector) for 1 hr. Sections were always washed three times with PBS (pH 7.4) between each incubation step. 3,3′-diaminobenzidine (DAB) was used as a chromogen.
The western blot assays was performed as described previously (Kim et al., 2003). […]

In assay [3] the test system is reactive oxygen species (ROS). Kind of assay: Striatal ROS formation after MA. The conditions noted are these: striatum, 3 days after final MA; p.o.; AME 50, EBS 20, rottlerin 20 mg/kg; GPx-1 (+/+) and (−/−) mice. The method, then:
as §1
The extent of reactive oxygen species (ROS) formation in the striatum was assessed by measuring the convertion from 2′,7′-dichlorofluorescin diacetate (DCFH-DA) to dichlorofluoresin (DCF) as describe by Bourre et al., (2002) with slight modification. Brain homogenates were added to a tube containing 2 ml of PBS with 10 nmole of DCFH-DA, dissolved in methanol. Mixture were incubated at 37° C. for 3 hours and then measured the absorbance at 480 nm excitation and 525 nm emission. DCF is used as a standard.

Another assay relates to TH phospho-ser 40. Put plainly: Striatal phospho-TH-ser 40 after MA (western blot). The settings on record: p.o.; AME 50, EBS 20, rottlerin 20 mg/kg; MA 8 mg/kg i.p. x4; GPx-1 (+/+) and (−/−) mice. The method, then:
as §1, §2
For orientation: In western blotting, separated proteins are transferred to a membrane and probed.

With `CC(=O)Oc1ccccc1C(=O)Oc1c(C)occc1=O` [AME, 3-(2-methyl-4-pyronyl)-2-acetyloxybenzoate], in assay [1], the “effect on MA-induced change in DA turnover rate” value is listed as “significantly attenuated MA-induced dopaminergic impairment”, the “effect on MA-induced change in striatal DA level” value is “significantly attenuated MA-induced dopaminergic impairment”, the “effect on MA-induced change in striatal DOPAC level” value is “significantly attenuated MA-induced dopaminergic impairment” and the “effect on MA-induced change in striatal HVA level” value is reported as “significantly attenuated MA-induced dopaminergic impairment”. The “effect on MA-induced increase in IFN-γ expression” value in the assay with interferon (IFN)-γ was “significantly and consistently attenuating effects”. Moreover, in assay [2], the “effect on MA-induced decrease in striatal GPx-1-IR” value is “inhibited MA-induced decrease in the GPx-1-IR”. Also, in assay [3], the “effect on MA-induced increase in ROS” value is listed as “significantly attenuated”. Besides, in the assay on TH phospho-ser 40, the “effect on MA-induced decrease in phospho-TH-ser 40” value is recorded as “significantly blocked”.
Consider `O=c1c2ccccc2[se]n1-c1ccccc1` [EBS, 2-phenyl-1,2-benzisoselenazol-3(2H)-one], for which, in assay [1], the “effect on MA-induced change in DA turnover rate” value is “significantly attenuated MA-induced dopaminergic impairment”, the “effect on MA-induced change in striatal DA level” value is reported as “significantly attenuated MA-induced dopaminergic impairment”, the “effect on MA-induced change in striatal DOPAC level” value is on record as “significantly attenuated MA-induced dopaminergic impairment” and the “effect on MA-induced change in striatal HVA level” value is listed as “significantly attenuated MA-induced dopaminergic impairment”. Besides, the “effect on MA-induced increase in IFN-γ expression” value in the assay with interferon (IFN)-γ is “significantly and consistently attenuating effects”. For the same compound, the “effect on MA-induced decrease in striatal GPx-1-IR” value in assay [2] is reported as “inhibited MA-induced decrease in the GPx-1-IR”. The “effect on MA-induced increase in ROS” value in assay [3] is “significantly attenuated”. The “effect on MA-induced decrease in phospho-TH-ser 40” value in the assay with TH phospho-ser 40 was “significantly blocked”.
For the compound `CC(=O)c1c(O)c(C)c(O)c(Cc2c(O)c3c(c(C(=O)/C=C/c4ccccc4)c2O)OC(C)(C)C=C3)c1O` [rottlerin], in assay [1], the “effect on MA-induced change in DA turnover rate” value is given as “significantly attenuated MA-induced dopaminergic impairment”, the “effect on MA-induced change in striatal DA level” value was “significantly attenuated MA-induced dopaminergic impairment”, the “effect on MA-induced change in striatal DOPAC level” value is “significantly attenuated MA-induced dopaminergic impairment” and the “effect on MA-induced change in striatal HVA level” value was “significantly attenuated MA-induced dopaminergic impairment”. Further, the “effect on MA-induced increase in IFN-γ expression” value in the assay on interferon (IFN)-γ was “significantly and consistently attenuating effects”. The “effect on MA-induced decrease in striatal GPx-1-IR” value in assay [2] is “inhibited MA-induced decrease in the GPx-1-IR”. Moreover, the “effect on MA-induced increase in ROS” value in assay [3] is “significantly attenuated”. In the assay on TH phospho-ser 40, the “effect on MA-induced decrease in phospho-TH-ser 40” value is given as “significantly blocked”.
